Consider 21 molecules from patent US12012410B2, “Substituted pyrazolo[1,5-a]pyrazines for spinal muscular atrophy” (REBORNA BIOSCIENCES, INC., priority 2018, dated 2024).

Structures are written as SMILES. Where a name gives a salt, the structure may show the parent alone.

This experiment deals with FL-SMN mRNA (SMN transcript containing exons 7 and 8). Kind of experiment: Live-cell assay to measure changes in FL-SMN mRNA levels (qPCR) after exposure to the compounds. As to conditions: fibroblasts derived from patients SMA (GM03813); 24 hours incubation. It is filed as cell-based, human. Here is the method: In this example, each test compound was administered to cultured cells, and changes in the expression levels of mRNA transcripts of SMN, i.e., FL-SMN containing exons 7 and 8 and Delta7 with exon 7 skipped, were examined using PCR.
Fibroblasts derived from patients SMA (GM03813) (Coriell Cell Repositories) were cultured with passages using DMEM (High Glucose) (Life Technologies) supplemented with 10% FBS (Life Technologies). Cells were seeded in tissue-culture-treated 96-well plates (Corning) at 1.5 or 0.5×10^4 cells/well in 100 μL of medium. The cells were incubated in 5% CO2 for 6 hours, and the medium was replaced with 100 μL of medium (with DMSO, 0.1% final concentration) containing each of the compounds given in the Examples. After additional incubation for 24 hours under the same conditions, the cells were washed once with D-PBS(—) (Wako) and 25 μL/well of the lysis solution (with gDNA Remove) contained in the SuperPrep (registered trademark) Cell Lysis & RT Kit for qPCR (Toyobo life science) was added according to the manufacturer's instructions so that the cells were lysed and the genomic DNA was degraded. Furthermore, 5 μL of the STOP solution (with RNase Inhibitor) contained in the kit was added to provide RNA-containing solutions. Six microliters of the RNA-containing solutions were each mixed with 14 μL of a reverse transcription solution containing transcriptase together with dNTP, random primers and an oligodT primer. Reverse transcription was performed at 37° C. (15 min), 50° C. (5 min), and 98° C. (5 min), to give total cDNAs. The total cDNAs were diluted 30-fold with Ultra-pure water (Invitrogen) to measure the expression levels of FL-SMN, delta7, and GAPDH. For quantitative PCR (qPCR), a PCR solution was prepared according to the instructions of the manufacturer of the THUNDERBIRD (registered trademark) Probe qPCR Mix (Toyobo life science). Five microliters of the diluted total cDNA solutions and oligo DNA standard solutions, each containing either 001-Standard FL-SMN (SEQ ID NO. 1) or 002-Standard delta7 (SEQ ID NO. 2), were each mixed with 10 μL of each of the PCR solutions containing a qPCR probe, primers, and PCR enzyme. […] The oligoDNA standard solutions were prepared as those containing either of 5×10^8, 5×10^7, 5×10^6, 5×10^5, 5×10^4, 5×10^3, 5×10^2, 5×10, 5, or 0 copies. For the oligo DNA standards, primers, and probes, oligonucleotides synthesized by Integrated DNA Technologies, Inc. (IDT) were used. […] FIGS. 3B and 3D show their detection mechanisms. The final concentrations of the primers and probes added were 0.4 μM and 0.15 μM, respectively. The qPCR was performed using the following conditions on a ViiA7 instrument (Applied Biosystems): first stage: 95° C. (1 min)→second stage: 95° C. (15 sec)→third stage: 60° C. (1 min)→40 repeated cycles of the second and third stages. The GAPDH mRNA was used as the internal control, and the commercially available 20×gene expression PCR assay (Life Technologies, 4326317E, Hs99999905_ml) and Standard GAPDH (SEQ ID NO. 7) (see FIG. 1) was used to determine the number of copies of this gene. The measurement values obtained for the samples to be measured were standardized against the respective value obtained for GAPDH.
Using the above-mentioned assays, the activities of the compounds of the Examples were evaluated. Specifically, the percentages of the FL-SMN and delta7 values obtained using DMSO without the compounds and standardized against GAPDH were set as 100% and those of the FL-SMN and delta7 values obtained at the time of administration of the compounds and standardized against GAPDH were calculated. […]

Consider `Cc1cn2nc(-c3nc4cc(F)c(C5CCN(C)CC5)cc4c(=O)[nH]3)cc2c(C)n1` [Example 1, 2-(4,6-Dimethylpyrazolo[1,5-a]pyrazin-2-yl)-7-fluoro-6-(1-methylpiperidin-4-yl)quinazolin-4(3H)-one], for which the “Percentage of increase (FL-SMN mRNA standardized against GAPDH, DMSO control set as 100%)” value is recorded as “**** (equal to or higher than 180%)”. Then `Cc1cn2nc(-c3nc4ccc(C5CCN(C)CC5)cc4c(=O)[nH]3)cc2c(C)n1` [Example 2, 2-(4,6-Dimethylpyrazolo[1,5-a]pyrazin-2-yl)-6-(1-methylpiperidin-4-yl)quinazolin-4(3H)-one], with “**** (equal to or higher than 180%)”. Then `Cc1cn2nc(-c3nc4c(F)cc(C5CCN(C)CC5)cc4c(=O)[nH]3)cc2c(C)n1` [Example 3, 2-(4,6-Dimethylpyrazolo[1,5-α]pyrazin-2-yl)-8-fluoro-6-(1-methylpiperidin-4-yl)quinazolin-4(3H)-one], with “**** (equal to or higher than 180%)”; and `Cc1cn2nc(-c3nc4ccc(C5CCN(C)CC5)c(F)c4c(=O)[nH]3)cc2c(C)n1` [Example 4, 2-(4,6-Dimethylpyrazolo[1,5-α]pyrazin-2-yl)-5-fluoro-6-(1-methylpiperidin-4-yl)quinazolin-4(3H)-one], with “**** (equal to or higher than 180%)”; and `CCc1nc(C)cn2nc(-c3nc4ccc(N5CCN(C)CC5)cc4c(=O)[nH]3)cc12` [Example 5, 2-(4-Ethyl-6-methylpyrazolo[1,5-α]pyrazin-2-yl)-6-(4-methylpiperazin-1-yl)quinazolin-4(3H)-one], with “*** (equal to or higher than 150% but lower than 180%)”. Then `Cc1cn2nc(-c3nc4ccc(N5CCN(C)CC5)cc4c(=O)[nH]3)cc2c(C)n1` [Example 6, 2-(4,6-Dimethylpyrazolo[1,5-α]pyrazin-2-yl)-6-(4-methylpiperazin-1-yl)quinazolin-4(3H)-one dihydrochloride], with “**** (equal to or higher than 180%)”; and `Cc1cn2nc(-c3nc4cc(F)c(N5CCN(C)CC5)cc4c(=O)[nH]3)cc2c(C)n1` [Example 7, 2-(4,6-Dimethylpyrazolo[1,5-α]pyrazin-2-yl)-7-fluoro-6-(4-methylpiperazin-1-yl)quinazolin-4(3H)-one], with “*** (equal to or higher than 150% but lower than 180%)”; and `Cc1cn2cc(-c3ccc4nc(C5CCN(C)CC5)[nH]c(=O)c4c3)ccc2n1` [Example 9, 6-(2-Methylimidazo[1,2-α]pyridin-6-yl)-2-(1-methylpiperidin-4-yl)quinazolin-4(3H)-one], with “**** (equal to or higher than 180%)”. Take `Cc1cn2cc(-c3ccc4nc(C5CCN(C)CC5)[nH]c(=O)c4c3)cc(F)c2n1` [Example 10, 6-(8-Fluoro-2-methylimidazo[1,2-α]pyridin-6-yl)-2-(1-methylpiperidin-4-yl)quinazolin-4(3H)-one]: the “Percentage of increase (FL-SMN mRNA standardized against GAPDH, DMSO control set as 100%)” value was “**** (equal to or higher than 180%)”. Then `Cc1cc2oc(-c3nc4ccc(N5CCN(C)CC5)cc4c(=O)[nH]3)cc2c(C)n1` [Example 11, 2-(4,6-Dimethylfuro[3,2-c]pyridin-2-yl)-6-(4-methylpiperazin-1-yl)quinazolin-4(3H)-one], with “*** (equal to or higher than 150% but lower than 180%)”; and `CCN1CCN(c2ccc3nc(-c4cc5c(C)nc(C)cn5n4)[nH]c(=O)c3c2)CC1` [Example 12, 2-(4,6-Dimethylpyrazolo[1,5-a]pyrazin-2-yl)-6-(4-ethylpiperazin-1-yl)quinazolin-4(3H)-one], with “**** (equal to or higher than 180%)”.

On to `Cc1nc2ccc(-c3ccc4nc(C5CCN(C)CC5)[nH]c(=O)c4c3)cc2o1` [Example 13, 6-(2-Methyl-1,3-benzoxazol-6-yl)-2-(1-methylpiperidin-4-yl)quinazolin-4(3H)-one], for which the “Percentage of increase (FL-SMN mRNA standardized against GAPDH, DMSO control set as 100%)” value is given as “**** (equal to or higher than 180%)”. Consider `Cc1nc2ccc(-c3ccc4nc(C5CCN(C)CC5)[nH]c(=O)c4c3)cc2s1` [Example 14, 6-(2-Methyl-1,3-benzothiazol-6-yl)-2-(1-methylpiperidin-4-yl)quinazolin-4(3H)-one], for which the “Percentage of increase (FL-SMN mRNA standardized against GAPDH, DMSO control set as 100%)” value is recorded as “*** (equal to or higher than 150% but lower than 180%)”. Then `Cc1cn2cc(-c3ccc4nc(C5CCN(C)CC5)[nH]c(=O)c4c3)cc2cn1` [Example 15, 2-(1-Methylpiperidin-4-yl)-6-(3-methylpyrrolo[1,2-α]pyrazin-7-yl)quinazolin-4(3H)-one], with “**** (equal to or higher than 180%)”; and `Cc1cn2nc(-c3nc4ccc(N5CCNCC5)cc4c(=O)[nH]3)cc2c(C)n1` [Example 16, 2-(4,6-Dimethylpyrazolo[1,5-α]pyrazin-2-yl)-6-(piperazin-1-yl)quinazolin-4(3H)-one dihydrochloride], with “**** (equal to or higher than 180%)”; and `Cc1cn2cc(-c3ccc4nc(C5CCN(C)CC5)[nH]c(=O)c4c3)cc(Cl)c2n1` [Example 17, 6-(8-Chloro-2-methylimidazo[1,2-α]pyridin-6-yl)-2-(1-methylpiperidin-4-yl)quinazolin-4(3H)-one], with “*** (equal to or higher than 150% but lower than 180%)”.

For `Cc1nc2c(F)cc(-c3ccc4nc(C5CCN(C)CC5)[nH]c(=O)c4c3)cc2o1` [Example 18, 6-(4-Fluoro-2-methyl-1,3-benzoxazol-6-yl)-2-(1-methylpiperidin-4-yl)quinazolin-4(3H)-one], the “Percentage of increase (FL-SMN mRNA standardized against GAPDH, DMSO control set as 100%)” value was “**** (equal to or higher than 180%)”. Then `Cc1cn2cc(-c3cc(C)c4nc(C5CCN(C)CC5)[nH]c(=O)c4c3)ccc2n1` [Example 19, 8-Methyl-6-(2-methylimidazo[1,2-α]pyridin-6-yl)-2-(1-methylpiperidin-4-yl)quinazolin-4(3H)-one], with “**** (equal to or higher than 180%)”; and `Cc1cn2cc(-c3ccc4nc(C5CCN(C)CC5)[nH]c(=O)c4c3)cc2c(C)n1` [Example 20, 6-(1,3-Dimethylpyrrolo[1,2-α]pyrazin-7-yl)-2-(1-methylpiperidin-4-yl)quinazolin-4(3H)-one], with “**** (equal to or higher than 180%)”. Next, `Cc1cn2nc(-c3nc4c(C)cc(N5CCN(C)CC5)cc4c(=O)[nH]3)cc2c(C)n1` [Example 21, 2-(4,6-Dimethylpyrazolo[1,5-α]pyrazin-2-yl)-8-methyl-6-(4-methylpiperazin-1-yl)quinazolin-4(3H)-one]: “**** (equal to or higher than 180%)”; `COc1cc(-c2ccc3nc(C4CCN(C)CC4)[nH]c(=O)c3c2)cn2cc(C)nc12` [Example 22, 6-(8-methoxy-2-methylimidazo[1,2-a]pyridine-6-yl)-2-(1-methylpiperidine-4-yl) kinazoline-4 (3H)-one]: “**** (equal to or higher than 180%)”.
